According to patent US9199946B2, “Pyrimidinone carboxamide inhibitors of endothelial lipase” (BRISTOL-MYERS SQUIBB COMPANY, priority 2012, dated 2015):

Biological target: T1, Endothelial lipase (EL) (Homo sapiens, UniProt Q9Y5X9)
T1 construct: HT-1080 cells, which were transformed by RAGE technology (Athersys) to overexpress endogenous EL; endogenous in cells; conditioned medium used as the enzyme source
T1 sequence (Q9Y5X9 21-500): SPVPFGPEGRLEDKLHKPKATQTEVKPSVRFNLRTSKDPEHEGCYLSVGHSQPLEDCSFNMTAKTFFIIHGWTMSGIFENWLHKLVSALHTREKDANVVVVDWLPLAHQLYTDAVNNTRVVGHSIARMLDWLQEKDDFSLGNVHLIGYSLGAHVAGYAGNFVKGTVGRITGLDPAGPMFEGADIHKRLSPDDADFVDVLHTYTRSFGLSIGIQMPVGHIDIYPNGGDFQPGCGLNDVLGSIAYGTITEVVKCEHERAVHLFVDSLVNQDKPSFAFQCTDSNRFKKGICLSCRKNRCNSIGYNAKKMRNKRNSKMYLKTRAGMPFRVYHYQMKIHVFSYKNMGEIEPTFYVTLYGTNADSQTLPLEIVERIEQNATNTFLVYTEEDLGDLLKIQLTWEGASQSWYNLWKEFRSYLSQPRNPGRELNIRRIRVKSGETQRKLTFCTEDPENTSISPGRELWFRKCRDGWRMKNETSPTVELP
Assay: Endothelial lipase (EL) enzymatic assay with fluorescent substrate A10070 in DMPG vesicles
Type: biochemical
Conditions: conditioned media from HT-1080 cells overexpressing endogenous EL; 20 min preincubation at 37° C.; read-out: EL IC50
Method in brief: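 The enzyme source was conditioned medium from HT-1080 cells engineered to overexpress endogenous EL. It was preincubated with compound for 20 min at 37 °C in 50 mM HEPES pH 8.0, 50 mM NaCl, 1 mM CaCl2. Reactions started with DMPG vesicles carrying FRET substrate A10070 (mole fraction 0.05). The rate was taken from the linear slope of fluorescence (ex 488/em 530 nm) over 10 min.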

IC50	Structure (SMILES)
0.042 µM	Nc1c(C(=O)NC2CCN(c3ncccc3Cl)C2)[nH]c(=O)[nH]c1=O (centres unmarked) [Example 186, 5-amino-N-(1-(3-chloropyridin-2-yl)pyrrolidin-3-yl)-2,6-dioxo-1,2,3,6-tetrahydropyrimidine-4-carboxamide]

Same assay, conditions: range observed in the EL assay; read-out: EL IC50 values

Structure (SMILES)	IC50
O=C(N[C@@H]1CCCc2c(OCC3CCCC3)cccc21)c1[nH]c(=O)[nH]c(=O)c1O [Example 291, (R)-N-(5-(cyclopentylmethoxy)-1,2,3,4-tetrahydronaphthalen-1-yl)-5-hydroxy-2,6-dioxo-1,2,3,6-tetrahydropyrimidine-4-carboxamide]	≤ 10 µM
Cc1ccc(-c2ccc([C@@H]3CC[C@H](NC(=O)c4[nH]c(=O)[nH]c(=O)c4N)C3)cc2)cc1 [Example 169, 5-amino-N-((1S,3R)-3-(4′-methylbiphenyl-4-yl)cyclopentyl)-2,6-dioxo-1,2,3,6-tetrahydropyrimidine-4-carboxamide]	≤ 10 µM
Nc1c(C(=O)NC2CCN(c3ncccc3Cl)C2)[nH]c(=O)[nH]c1=O (centres unmarked) [Example 186, 5-amino-N-(1-(3-chloropyridin-2-yl)pyrrolidin-3-yl)-2,6-dioxo-1,2,3,6-tetrahydropyrimidine-4-carboxamide]	≤ 10 µM

The next lines start with the values.

IC50	Structure (SMILES)
≤ 10 µM	Nc1c(C(=O)N[C@H]2CC[C@@H](c3ccccc3)CC2)n(-c2ccc(Cl)c(Cl)c2)c(=O)[nH]c1=O [Example 204, 5-amino-3-(3,4-dichlorophenyl)-2,6 dioxo-N-(cis-4-phenylcyclohexyl)-1,2,3,6-tetrahydropyrimidine-4-carboxamide]
≤ 10 µM	O=C(N[C@H]1CC[C@@H](c2ccccc2)CC1)c1[nH]c(=O)[nH]c(=O)c1NCc1cc(F)cc(C(F)(F)F)c1 [Example 236, 5-(3-fluoro-5-(trifluoromethyl)benzylamino)-2,6-dioxo-N-((1s,4s)-4-phenylcyclohexyl)-1,2,3,6-tetrahydropyrimidine-4-carboxamide]
≤ 10 µM	Nc1c(C(=O)N[C@H]2CC[C@@H](NC(=O)c3ccccc3)CC2)[nH]c(=O)[nH]c1=O [Example 115, 5-amino-N-(cis-4-benzamidocyclohexyl)-2,6-dioxo-1,2,3,6-tetrahydropyrimidine-4-carboxamide]
≤ 10 µM	Nc1c(C(=O)N[C@H]2CC[C@@H](c3cccc(C(F)(F)F)c3)CC2)[nH]c(=O)[nH]c1=O [Example 30, 5-amino-2,6-dioxo-N-(cis-4-(3-(trifluoromethyl)phenyl)cyclohexyl)-1,2,3,6-tetrahydropyrimidine-4-carboxamide]
